Among the test systems are MDA-N; SNB-19; NCI/ADR-RES; A549; SN12C; EKVX; RPMI-8226; OVCAR-4; PC-3; UO-31; SW-620; K562; SF-268; NCI-H226; COLO 205; HOP-92; HCC 2998; A498; SF-295; NCI-H23.
Common to all, as to test: NCI anticancer screen, dose series, 48 h

Molecules are shown by their SMILES.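 Where inhibition never reached the appropriate level, the endpoint shown equals the highest concentration tested. Otherwise, values were interpolated linearly from a five-concentration, 48-hour dose response in 96-well plates. GI50 is the concentration that inhibits growth by half.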 Calls of active or inactive are those of the source. Rule as the data show it: active = GI50 up to about 1.1 µM and inactive = higher.

`CN/C(=N\N)NS(=O)(=O)c1cc(C)c(Cl)cc1S`: the GI50 was > 100 µM (inactive) with MDA-N; > 100 µM (inactive) with SNB-19; > 100 µM (inactive) with NCI/ADR-RES; 29.9 µM (inactive) with A549; > 100 µM (inactive) with SN12C; 81.7 µM (inactive) with EKVX. For the same compound, the GI50 was 74 µM (inactive) with RPMI-8226; > 100 µM (inactive) in the assay with OVCAR-4; > 100 µM (inactive) in the assay on PC-3; 25.1 µM (inactive) with UO-31; 48.5 µM (inactive) in the assay with SW-620; 49.2 µM (inactive) in the assay on K562. The GI50 is > 100 µM (inactive) with SF-268; > 100 µM (inactive) in the assay with NCI-H226; > 100 µM (inactive) with COLO 205; 75.2 µM (inactive) with HOP-92; 87.7 µM (inactive) with HCC 2998.
In the case of `COc1ccc(-c2nc(O)c3ccccc3n2)c(OC)c1`, the GI50 in the assay on MDA-N, with SNB-19, in the assay with A498, in the assay on NCI/ADR-RES, in the assay with A549 and in the assay on SF-295 was > 100 µM (inactive) each time. Also, the GI50 in the assay on SN12C is > 100 µM (inactive); in the assay with EKVX, > 100 µM (inactive); in the assay with RPMI-8226, 29.1 µM (inactive); with OVCAR-4, > 100 µM (inactive); with PC-3 it was > 100 µM (inactive); in the assay on UO-31 it was > 100 µM (inactive). Also, the GI50 in the assay on SW-620, in the assay with SF-268, in the assay on NCI-H226, in the assay with COLO 205, with NCI-H23 and in the assay on HCC 2998 was > 100 µM (inactive) throughout.
Consider `COc1ccc2c(c1)CCc1[nH]c3ccccc3c1CCCC2`, for which the GI50 in the assay with MDA-N, in the assay with SNB-19, in the assay on NCI/ADR-RES, in the assay on A549, in the assay on SF-295 and with SN12C was > 10 µM (inactive) throughout. The GI50 with RPMI-8226, with OVCAR-4, with PC-3, in the assay on SW-620, with K562 and in the assay with SF-268 was > 10 µM (inactive) throughout. The GI50 with COLO 205, with HOP-92, in the assay on NCI-H23 and with HCC 2998 was > 10 µM (inactive) throughout.
For `O=C(O)C(Cc1ccccc1)NCc1c(O)ccc2c(-c3ccccc3)cc(=O)oc12` (stereo unspecified), the GI50 with MDA-N, in the assay with SNB-19, with NCI/ADR-RES, with A549, in the assay on SF-295 and in the assay with SN12C was > 100 µM (inactive) each time. Besides, the GI50 in the assay on EKVX, with RPMI-8226, in the assay on OVCAR-4, in the assay on PC-3, in the assay on UO-31 and in the assay on SW-620 was > 100 µM (inactive) throughout. Moreover, the GI50 in the assay on K562, in the assay with SF-268, in the assay on NCI-H226, in the assay with COLO 205, with HOP-92 and in the assay with NCI-H23 was > 100 µM (inactive) each time. Moreover, in the assay with HCC 2998, the GI50 was > 100 µM (inactive).
Take `CC12CC3OC(=O)C1COC14OC5(C2C1=O)C(O)(CCC1C4CC(O)C2(O)CC=CC(=O)C12C)C(=O)OC35C` (stereo unspecified): the GI50 in the assay on MDA-N is 83.4 µM (inactive); in the assay on SNB-19 it was > 100 µM (inactive); in the assay on NCI/ADR-RES, > 100 µM (inactive); in the assay on A549, > 100 µM (inactive); in the assay with SF-295 it was > 100 µM (inactive); in the assay with SN12C it was > 100 µM (inactive). The GI50 in the assay with EKVX, in the assay with RPMI-8226, with OVCAR-4, in the assay on PC-3, in the assay with UO-31 and with SW-620 was > 100 µM (inactive) in each case. Also, the GI50 in the assay on K562, with SF-268, in the assay with NCI-H226, in the assay on COLO 205, in the assay with HOP-92 and with NCI-H23 was > 100 µM (inactive) each time. Also, the GI50 in the assay with HCC 2998 was > 100 µM (inactive).
As for `CCOC(=O)C(C)(C(=O)OCC)/C(Cl)=C\Cl`, the GI50 with MDA-N was > 100 µM (inactive); in the assay on SNB-19, > 100 µM (inactive); with NCI/ADR-RES, > 100 µM (inactive); in the assay on A549, 33.7 µM (inactive); in the assay on SF-295, > 100 µM (inactive); in the assay on SN12C, > 100 µM (inactive). The GI50 in the assay on EKVX, in the assay with RPMI-8226, in the assay on OVCAR-4, in the assay on PC-3, in the assay on UO-31 and in the assay with SW-620 was > 100 µM (inactive) each time. The GI50 in the assay on K562, with SF-268, in the assay on NCI-H226, in the assay on COLO 205, in the assay with HOP-92 and in the assay with NCI-H23 was > 100 µM (inactive) throughout. The GI50 in the assay on HCC 2998 is 0.0434 µM (active).
In the case of `Cc1n[nH]c(=O)n1Nc1ccccc1`, the GI50 in the assay with MDA-N, in the assay on SNB-19, with NCI/ADR-RES, in the assay with A549, in the assay with SF-295 and in the assay on SN12C was > 100 µM (inactive) each time. The GI50 in the assay on EKVX, in the assay on RPMI-8226, in the assay on OVCAR-4, in the assay on PC-3, in the assay on UO-31 and in the assay with SW-620 was > 100 µM (inactive) each time. The GI50 in the assay on K562, with SF-268, in the assay on NCI-H226, in the assay on COLO 205, in the assay on HOP-92 and in the assay with NCI-H23 was > 100 µM (inactive) throughout. For the same compound, the GI50 in the assay on HCC 2998 was > 100 µM (inactive).
As for `COc1c(O)cc(/C=C/c2cc(O)cc3c2[C@@]2(C(=O)O3)c3c(O)cc(O)cc3OC2c2cccc(O)c2)cc1O` (stereo partly specified), the GI50 is 39.5 µM (inactive) with MDA-N; 39.3 µM (inactive) with SNB-19; 94.6 µM (inactive) in the assay with A498; 26.4 µM (inactive) in the assay on NCI/ADR-RES; > 100 µM (inactive) in the assay on A549; 19.2 µM (inactive) in the assay on SN12C. The GI50 in the assay with RPMI-8226 is 14.7 µM (inactive); in the assay on OVCAR-4, 19.6 µM (inactive); in the assay with PC-3 it was 51.8 µM (inactive); with UO-31, 26.1 µM (inactive); with SW-620, 44.2 µM (inactive); in the assay on K562, 65.3 µM (inactive). Also, the GI50 in the assay on SF-268 is 62.4 µM (inactive); with COLO 205, 41.2 µM (inactive); in the assay with HOP-92, > 100 µM (inactive); in the assay on NCI-H23 it was 81.7 µM (inactive).
Regarding `Cc1cc(S(=O)(=O)NC2=Nc3cccc4cccc(c34)N2)c(S)cc1Cl`, the GI50 in the assay with MDA-N is 0.316 µM (active); in the assay on SNB-19 it was 79.1 µM (inactive); in the assay with NCI/ADR-RES it was > 100 µM (inactive); in the assay with A549 it was 55.1 µM (inactive); in the assay on SF-295, 39.5 µM (inactive); in the assay on EKVX it was > 100 µM (inactive). Also, the GI50 in the assay with RPMI-8226 is > 100 µM (inactive); in the assay on OVCAR-4, 85.9 µM (inactive); in the assay with PC-3, 65.3 µM (inactive); in the assay with UO-31, > 100 µM (inactive); in the assay with SW-620, 78.7 µM (inactive); with K562, > 100 µM (inactive). Also, the GI50 in the assay with SF-268 was > 100 µM (inactive); with NCI-H226, > 100 µM (inactive); in the assay with COLO 205, 84.7 µM (inactive); in the assay with HOP-92 it was > 100 µM (inactive); with HCC 2998, > 100 µM (inactive).
On to `O=C1Nc2ccc(Br)cc2/C1=N/Nc1ccccc1[N+](=O)[O-]`, for which the GI50 with MDA-N is 17 µM (inactive); in the assay with SNB-19, 28.6 µM (inactive); with A498, 28 µM (inactive); in the assay with NCI/ADR-RES, 15.8 µM (inactive); in the assay with A549, 9.29 µM (inactive); with SF-295, 14 µM (inactive). In addition, the GI50 is 18.8 µM (inactive) with SN12C; 6.31 µM (inactive) in the assay on EKVX; 16.4 µM (inactive) with RPMI-8226; 14.4 µM (inactive) with OVCAR-4; 15.8 µM (inactive) in the assay with PC-3; 16.9 µM (inactive) in the assay with UO-31. Further, the GI50 with SW-620 was 25 µM (inactive); with K562, 16.6 µM (inactive); with SF-268, 20.2 µM (inactive); in the assay on NCI-H226, 13.6 µM (inactive); in the assay with COLO 205, 12.1 µM (inactive); in the assay on NCI-H23, 3.56 µM (inactive). Further, in the assay with HCC 2998, the GI50 is 13 µM (inactive).
On to `COc1nc2sc3c(c2c(=O)n1CCCSSCCCn1c(OC)nc2sc4c(c2c1=O)CCCC4)CCCC3`, for which the GI50 with MDA-N, in the assay on SNB-19, with NCI/ADR-RES, in the assay with A549, with SF-295 and with SN12C was > 100 µM (inactive) each time. Moreover, the GI50 in the assay on EKVX is > 100 µM (inactive); in the assay on RPMI-8226, 6.92 µM (inactive); with OVCAR-4, > 100 µM (inactive); in the assay with PC-3 it was > 100 µM (inactive); with UO-31, > 100 µM (inactive); with K562, > 100 µM (inactive). Also, the GI50 in the assay on NCI-H226, in the assay with COLO 205, in the assay with HOP-92, in the assay on NCI-H23 and with HCC 2998 was > 100 µM (inactive) in each case.

(Values after ChEMBL document CHEMBL1201862, “PubChem BioAssay data set” (2004).)
